Results taken from patent US12077503B2, “Substituted cyclic amides and their use as herbicides” (FMC CORPORATION, priority 2015, dated 2024).

Key:
Assay type in all cases: in vivo
Kochia (Kochia scoparia) [1] = assay: Test A preemergence; conditions: Bassia scoparia, pre-emergence, 240 h, 0 to 100 scale where 0 is no effect and 100 is complete control, read-out: Kochia plant response rating
In short: (§1)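 Preemergence directed soil spray on seeded pots, or postemergence application to plants 2–10 cm, one- to two-leaf. Solvent mixture non-phytotoxic, with surfactant. Scored ~10 d later, visually, 0–100 vs untreated.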

[2] = system: barnyardgrass (Echinochloa crus-galli); assay: Test A preemergence; conditions: Echinochloa crus-galli, pre-emergence, 240 h, 0 to 100 scale where 0 is no effect and 100 is complete control, read-out: Barnyardgrass plant response rating
In short: as §1

[3] = system: giant foxtail (Setaria faberii); assay: Test A preemergence; conditions: Setaria faberi, pre-emergence, 240 h, 0 to 100 scale where 0 is no effect and 100 is complete control, read-out: Foxtail, Giant plant response rating
In short: as §1

[4] = system: pigweed (Amaranthus retroflexus); assay: Test A preemergence; conditions: Amaranthus retroflexus, pre-emergence, 240 h, 0 to 100 scale where 0 is no effect and 100 is complete control, read-out: Pigweed plant response rating
[5] = system: ragweed (common ragweed, Ambrosia elatior); assay: Test A preemergence; conditions: Ambrosia artemisiifolia, pre-emergence, 240 h, 0 to 100 scale where 0 is no effect and 100 is complete control, read-out: Ragweed plant response rating
In short: as §1

[6] = system: ryegrass, Italian (Italian ryegrass, Lolium multiflorum); assay: Test A preemergence; conditions: Lolium multiflorum, pre-emergence, 240 h, 0 to 100 scale where 0 is no effect and 100 is complete control, read-out: Ryegrass, Italian plant response rating
In short: as §1

[7] = system: Galium (catchweed bedstraw, Galium aparine); assay: Test A postemergence; conditions: Galium, post-emergence, 240 h, Postemergence, read-out: Galium plant response rating (0 to 100 scale)
In short: as §1

Kochia (Kochia scoparia) [8] = assay: Test A postemergence; conditions: Bassia scoparia, post-emergence, 240 h, Postemergence, read-out: Kochia plant response rating (0 to 100 scale)
In short: as §1

[9] = system: barnyardgrass (Echinochloa crus-galli); assay: Test A postemergence; conditions: Echinochloa crus-galli, post-emergence, 240 h, Postemergence
In short: as §1

[10] = system: blackgrass (Alopecurus myosuroides); assay: Test A postemergence; conditions: Alopecurus myosuroides, post-emergence, 240 h, Postemergence, read-out: Blackgrass plant response rating (0 to 100 scale)
In short: as §1

corn (Zea mays) = assay: Test A postemergence; conditions: Zea mays, post-emergence, 240 h, Postemergence, read-out: Corn plant response rating (0 to 100 scale)
In short: as §1

[11] = system: giant foxtail (Setaria faberii); assay: Test A postemergence; conditions: Setaria faberi, post-emergence, 240 h, Postemergence, read-out: Foxtail, Giant plant response rating (0 to 100 scale)
In short: as §1

[12] = system: pigweed (Amaranthus retroflexus); assay: Test A postemergence; conditions: Amaranthus retroflexus, post-emergence, 240 h, Postemergence, read-out: Pigweed plant response rating (0 to 100 scale)
In short: as §1

[13] = system: ragweed (common ragweed, Ambrosia elatior); assay: Test A postemergence; conditions: Ambrosia artemisiifolia, post-emergence, 240 h, Postemergence, read-out: Ragweed plant response rating (0 to 100 scale)
In short: as §1

[14] = system: ryegrass, Italian (Italian ryegrass, Lolium multiflorum); assay: Test A postemergence; conditions: Lolium multiflorum, post-emergence, 240 h, Postemergence, read-out: Ryegrass, Italian plant response rating (0 to 100 scale)
In short: as §1

[15] = system: wheat (Triticum aestivum); assay: Test A postemergence; conditions: Triticum aestivum, post-emergence, 240 h, Postemergence, read-out: Wheat plant response rating (0 to 100 scale)
In short: as §1

[16] = system: barnyardgrass (Echinochloa crus-galli); assay: Test B flooded paddy test; conditions: Echinochloa crus-galli, 250 g ai/ha, Flood; 0 to 100 scale where 0 is no effect and 100 is complete control; read-out: Barnyardgrass plant response rating
In short: (§2)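 Flooding to 3 cm over soil accompanied treatment, which consisted of adding compound to the standing water around 2-leaf plants; depth was then maintained. Visual assessment versus controls followed at 13 to 15 d (scale 0–100, 0 meaning no effect).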

[17] = system: ducksalad (Heteranthera limosa); assay: Test B flooded paddy test; conditions: Heteranthera limosa, 250 g ai/ha, Flood; 0 to 100 scale where 0 is no effect and 100 is complete control; read-out: Ducksalad plant response rating
In short: as §2

rice (Oryra sativa) = assay: Test B flooded paddy test; conditions: Oryza sativa, 250 g ai/ha, Flood; 0 to 100 scale where 0 is no effect and 100 is complete control; read-out: Rice plant response rating
In short: as §2

[18] = system: sedge, umbrella (small-flower umbrella sedge, Cyperus difformis); assay: Test B flooded paddy test; conditions: Cyperus difformis, 250 g ai/ha, Flood; 0 to 100 scale where 0 is no effect and 100 is complete control; read-out: Sedge, Umbrella plant response rating
In short: as §2

[19] = 125 g ai/ha, preemergence, visual injury rating, approximately 10 d
[20] = 125 g ai/ha, visual rating about 10 d after treatment
[21] = 31 g ai/ha, 0 is no effect, 100 is complete control

CN1C[C@H](c2cc(Cl)cc(Cl)c2)[C@@H](C(=O)Nc2cccc(F)c2F)C1=O [Compound 1270]
pest or weed control at 31 g/ha (Kochia (Kochia scoparia) [1]; 31 g ai/ha, Preemergence): 40% | pest or weed control at 125 g/ha (Kochia (Kochia scoparia) [1]; [19]): 60% | pest or weed control at 31 g/ha ([2]; 31 g ai/ha, Preemergence): 70% | pest or weed control at 125 g/ha [2, 19]: 90% | pest or weed control at 31 g/ha ([3]; 31 g ai/ha, Preemergence): 90% | pest or weed control at 125 g/ha [3, 19]: 90% | pest or weed control at 31 g/ha ([4]; 31 g ai/ha, Preemergence): 0% | pest or weed control at 125 g/ha [4, 19]: 40% | pest or weed control at 31 g/ha ([5]; 31 g ai/ha, Preemergence): 0% | pest or weed control at 125 g/ha [5, 19]: 30% | pest or weed control at 31 g/ha ([6]; 31 g ai/ha, Preemergence): 0% | pest or weed control at 125 g/ha [6, 19]: 40% | pest or weed control at 125 g/ha [7, 20]: 70% | pest or weed control at 31 g/ha [7, 21]: 60% | pest or weed control at 125 g/ha (Kochia (Kochia scoparia) [8]; [20]): 60% | pest or weed control at 31 g/ha (Kochia (Kochia scoparia) [8]; [21]): 0% | pest or weed control at 125 g/ha ([9]; 125 g ai/ha, visual rating about 10 d after treatment, read-out: Barnyardgrass plant response rating (0 to 100 scale, 0 no effect, 100 complete control)): 90% | pest or weed control at 31 g/ha ([9]; 31 g ai/ha, 0 is no effect, 100 is complete control, read-out: Barnyardgrass plant response rating (0 to 100 scale)): 90% | pest or weed control at 125 g/ha [10, 20]: 40% | pest or weed control at 31 g/ha [10, 21]: 0% | plant injury at 125 g/ha (corn (Zea mays); [20]): 20% | plant injury at 31 g/ha (corn (Zea mays); [21]): 0% | pest or weed control at 125 g/ha [11, 20]: 80% | pest or weed control at 31 g/ha [11, 21]: 60% | pest or weed control at 125 g/ha [12, 20]: 60% | pest or weed control at 31 g/ha [12, 21]: 40% | pest or weed control at 125 g/ha [13, 20]: 0% | pest or weed control at 31 g/ha [13, 21]: 0% | pest or weed control at 125 g/ha [14, 20]: 30% | pest or weed control at 31 g/ha [14, 21]: 0% | plant injury at 125 g/ha [15, 20]: 40% | plant injury at 31 g/ha [15, 21]: 0% | pest or weed control at 250 g/ha [16]: 60% | pest or weed control at 250 g/ha [17]: 80% | pest or weed control at 250 g/ha (rice (Oryra sativa)): 15% | pest or weed control at 250 g/ha [18]: 0%
